Structures can show the parent of a compound that is named as a salt.
Molecular target: α7 nAChR (Rattus norvegicus (Rat), UniProt Q05941)
Test: Inhibition of [3H]-methyllycaconitine binding to rat brain membranes
Conditions: [3H]-methyllycaconitine displacement, rat brain membranes (hippocampus or whole brain); Ki=IC50/(1+L/KD)
Description: Determination of the Affinity of Test Substaces for α7 nAChR by Inhibition of [^3H]-Methyllycaconitine Binding to Rat Brain Membranes
The [^3H]-methyllycaconitine binding assay is a modification of the method described by Davies et al. in Neuropharmacol. 1999, 38, 679-690.
Rat brain tissue (hippocampus or whole brain) is homogenized in homogenization buffer (10% w/v, 0.32 M sucrose, 1 mM EDTA, 0.1 mM phenylmethylsulphonyl fluoride (PMSF), 0.01% (w/v) NaN3, pH 7.4, 4° C.) at 600 rpm in a glass homogenizer. The homogenate is centrifuged (1000×g, 4° C., 10 min) and the supernatant is removed. The pellet is resuspended (20% w/v) and the suspension is centrifuged (1000×g, 4° C., 10 min). The two supernatants are combined and centrifuged (15 000×g, 4° C., 30 min). The pellet obtained in this way is referred to as the P2 fraction.
The P2 pellet is suspended in binding buffer (50 mM Tris-HCl, 1 mM MgCl2, 120 mM NaCl, 5 mM KCl, 2 mM CaCl2, pH 7.4), and the suspension is centrifuged (15 000×g, 4° C., 30 min), twice.
The residue is resuspended in binding buffer and incubated in a volume of 250 μl (amount of membrane protein 0.1-0.5 mg) in the presence of 1-5 nM [^3H]-methyllycaconitine 0.1% (w/v) BSA (bovine serum albumin) and various concentrations of the test substance at 21° C. for 2.5 h. […] in the presence of 1 μM α-bungarotoxin or 100 μM nicotine or 10 μM MLA (methyllycaconitine).
The incubation is stopped by adding 4 ml PBS (20 mM Na2HPO4, 5 mM KH2PO4, 150 mM NaCl, pH 7.4, 4° C.) and filtering through type A/E glass fibre filters (Gelman Sciences) which have previously been placed in 0.3% (v/v) polyethyleneimine (PEI) for 3 h. The filters are washed twice with 4 ml of PBS (4° C.), and the bound radioactivity is determined by scintillation measurement. All the assays are carried out in triplicate. The dissociation constant K1 of the test substance was determined from the IC50 of the compounds (concentration of the test substance at which 50% of the ligand bound to the receptor is displaced), the dissociation constant KD and the concentration L of [^3H]-methyllycaconitine using the equation Ki=IC50/(1+L/KD).

α7 nAChR, sequence (Q05941 23-502): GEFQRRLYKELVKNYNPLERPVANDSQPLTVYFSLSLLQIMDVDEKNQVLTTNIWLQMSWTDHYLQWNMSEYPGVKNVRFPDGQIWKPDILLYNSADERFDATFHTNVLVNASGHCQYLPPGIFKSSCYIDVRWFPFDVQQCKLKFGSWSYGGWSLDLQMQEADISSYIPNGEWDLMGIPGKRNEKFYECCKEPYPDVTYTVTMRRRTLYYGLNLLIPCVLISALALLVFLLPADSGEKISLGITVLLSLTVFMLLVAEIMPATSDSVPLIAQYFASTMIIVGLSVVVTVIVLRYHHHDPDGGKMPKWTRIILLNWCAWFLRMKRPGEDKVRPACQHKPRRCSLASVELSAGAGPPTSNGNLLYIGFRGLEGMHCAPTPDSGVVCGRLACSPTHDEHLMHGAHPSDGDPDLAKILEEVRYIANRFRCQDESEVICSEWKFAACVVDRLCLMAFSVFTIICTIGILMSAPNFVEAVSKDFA

Going from NCc1ccccc1-c1cccc2cc(C(=O)N[C@H]3CN4CCC3CC4)sc12 [Example 73, 7-[2-(Aminomethyl)phenyl]-N-[(3R)-1-azabicyclo[2.2.2]oct-3-yl]-1-benzothiophene-2-carboxamide dihydrochloride] to O=C(N[C@H]1CN2CCC1CC2)c1cc2cccc(-c3ccc(CO)cc3)c2s1 [Example 20, N-[(3R)-1-Azabicyclo[2.2.2]oct-3-yl]-7-[4-(hydroxymethyl)phenyl]-1-benzothiophene-2-carboxamide hydrochloride], the Ki rises from under 1 nM to 1.6 nM.

First: O=C(N[C@H]1CN2CCC1CC2)c1cc2cccc(-c3ccccc3O)c2o1 [Example 186, N-[(3R)-1-Azabicyclo[2.2.2]oct-3-yl]-7-(2-hydroxyphenyl)-1-benzofuran-2-carboxamide]
Second: O=C(N[C@H]1CN2CCC1CC2)c1cc2cccc(-c3ccccc3CO)c2o1 [Example 150, N-[(3R)-1-Azabicyclo[2.2.2]oct-3-yl]-7-[2-(hydroxymethyl)phenyl]-1-benzofuran-2-carboxamide hydrochloride]
The Ki of the first is 3.4-fold higher: 120 nM for the first, 35 nM for the second.

Going from O=C(N[C@H]1CN2CCC1CC2)c1cc2ccc(-c3ccc(CO)cc3)cc2o1 [Example 3, N-[(3R)-1-Azabicyclo[2.2.2]oct-3-yl]-6-[4-(hydroxymethyl)phenyl]-1-benzofuran-2-carboxamide] to O=C(N[C@H]1CN2CCC1CC2)c1cc2ccc(-c3ccc(N4CCOCC4)cc3)cc2o1 [Example 4, N-[(3R)-1-Azabicyclo[2.2.2]oct-3-yl]-6-[4-(4-morpholinyl)phenyl]-1-benzofuran-2-carboxamide], the Ki falls from 60 nM to 24 nM (2.5-fold). The second binds more tightly here.

First: O=C(N[C@H]1CN2CCC1CC2)c1cc2cccc(-c3ccc(N4CCOCC4=O)cc3)c2o1 [Example 90, N-[(3R)-1-Azabicyclo[2.2.2]oct-3-yl]-7-[4-(3-oxo-4-morpholinyl)phenyl]-1-benzofuran-2-carboxamide hydrochloride]
Second: O=C(O)c1cccc(-c2cccc3cc(C(=O)N[C@H]4CN5CCC4CC5)oc23)c1 [Example 149, 3-(2-{[(3R)-1-Azabicyclo[2.2.2]oct-3-ylamino]carbonyl}-1-benzofuran-7-yl)-benzoic acid hydrochloride]
The Ki of the first is 6.9-fold lower: 14 nM for the first, 97 nM for the second.

Compared with COc1ccc(OC)c(-c2cccc3cc(C(=O)N[C@H]4CN5CCC4CC5)oc23)c1 [Example 151, N-[(3R)-1-Azabicyclo[2.2.2]oct-3-yl]-7-(2,5-dimethoxyphenyl)-1-benzofuran-2-carboxamide hydrochloride], COc1ccccc1-c1cccc2cc(C(=O)N[C@H]3CN4CCC3CC4)oc12 [Example 130, N-[(3R)-1-Azabicyclo[2.2.2]oct-3-yl]-7-[2-(methoxy)phenyl]-1-benzofuran-2-carboxamide] is 3.4-fold lower in Ki: 88 nM for the first, 26 nM for the second.

Going from CNC(=O)NCc1ccccc1-c1cccc2cc(C(=O)N[C@H]3CN4CCC3CC4)oc12 [Example 175, N-[(3R)-1-Azabicyclo[2.2.2]oct-3-yl]-7-[2-({[(methylamino)carbonyl]amino}-methyl)phenyl]-1-benzofuran-2-carboxamide hydrochloride] to CCNC(=O)Nc1cccc(-c2cccc3cc(C(=O)N[C@H]4CN5CCC4CC5)oc23)c1 [Example 108, N-[(3R)-1-Azabicyclo[2.2.2]oct-3-yl]-7-(3-{[(ethylamino)carbonyl]amino}phenyl)-1-benzofuran-2-carboxamide hydrochloride], the Ki rises from 8.3 nM to 17 nM (2-fold). The first binds more tightly here.

Compared with COc1cccc(-c2cccc3cc(C(=O)N[C@H]4CN5CCC4CC5)sc23)c1 [Example 17, N-[(3R)-1-Azabicyclo[2.2.2]oct-3-yl]-7-(3-methoxyphenyl)-1-benzothiophene-2-carboxamide hydrochloride], O=C(O)c1cccc(-c2cccc3cc(C(=O)N[C@H]4CN5CCC4CC5)sc23)c1 [Example 75, 3-(2-{[(3R)-1-Azabicyclo[2.2.2]oct-3-ylamino]carbonyl}-1-benzothien-7-yl)-benzoic acid hydrochloride] is lower in Ki: 17 nM for the first, under 0.1 nM for the second.

O=C(N[C@H]1CN2CCC1CC2)c1cc2cccc(-c3cccc(NC(=O)C4CC4)c3)c2o1 [Example 116, N-[(3R)-1-Azabicyclo[2.2.2]oct-3-yl]-7-{3-[(cyclopropylcarbonyl)amino]phenyl}-1-benzofuran-2-carboxamide hydrochloride] and O=C(N[C@H]1CN2CCC1CC2)c1cc2cccc(-c3ccc(N4CCOCC4)cc3)c2s1 [Example 19, N-[(3R)-1-Azabicyclo[2.2.2]oct-3-yl]-7-[4-(4-morpholinyl)phenyl]-1-benzothiophene-2-carboxamide hydrochloride] are within 1.5-fold of each other in Ki: 17 nM for the first, 20 nM for the second.

Same assay, conditions: [3H]-methyllycaconitine displacement, rat brain membranes (hippocampus or whole brain); Ki=IC50/(1+L/KD); hydrochloride

With COc1ccccc1-c1cccc2cc(C(=O)N[C@H]3CN4CCC3CC4)oc12 [Example 102, N-[(3R)-1-Azabicyclo[2.2.2]oct-3-yl]-7-[2-(methoxy)phenyl]-1-benzofuran-2-carboxamide hydrochloride] the Ki was 62 nM.

From patent publication US9067931B2, “2-heteroaryl carboxamides” (BAYER INTELLECTUAL PROPERTY GMBH, priority 2002, dated 2015)
